Laboratory results published in paper PMC4581723, “Evaluation of In Vitro Activity of the Class I PI3K Inhibitor Buparlisib (BKM120) in Pediatric Bone and Soft Tissue Sarcomas” (PLoS ONE, 2015).
pIC50: −log10 of the molar value. Like-named read-outs stand apart in the source and are kept apart here.

Key:
[1] = system: pediatric sarcoma cell lines; assay: Cell viability assay (MTT), panel of sarcoma cell lines; format: cell-based
[2] = system: ES (TC-174, A4573), OS (KHOS, MNNG), and RMS (RD) colonies; assay: Soft agar assay (anchorage independent growth); format: cell-based; conditions: 14 days
Description: After 14 days of growth, colonies were stained with 0.005% crystal violet, imaged, and quantified using ImageJ. […] Increasing concentrations reduced both soft agar colony number and size (Fig 5A). Cell growth was inhibited within a narrower range than observed for anchorage dependent growth. […] (A) Plot of number and size of ES (TC-174, […]), OS (KHOS, MNNG), and RMS (RD) colonies formed in soft agar in the presence of DMSO or increasing concentrations of buparlisib. Columns represent the average of three replicates, error bars represent standard deviation. (B) Representative pictures of TC-174 soft agar colonies. (C) Immunoblot analysis of cleaved PARP in ES (TC-174, TC-32, […]), OS (KHOS), and RMS (RD, SJCRH30) treated with increasing doses of buparlisib for 24 hours. (D) Cell cycle analysis after 24 hours of buparlisib treatment of ES (TC-174, […]), OS (KHOS), and RMS (RD) cell lines. Data are the mean of two independent experiments.

[3] = system: TC-248; assay: Cell viability assay (MTT), 72 h; format: cell-based; conditions: TC-248 (ES), PIK3CA WT, read-out: Buparlisib cell viability IC50
[4] = system: KHOS 312H; assay: Cell viability assay (MTT), 72 h; format: cell-based; conditions: KHOS 312H (OS), read-out: Buparlisib cell viability IC50
[5] = system: MCF-7; assay: Cell viability assay (MTT), 72 h; conditions: read-out: Buparlisib cell viability IC50, MCF-7 (breast), PIK3CA E545K
Description: Cells were seeded in 96-well plates and drugs were added after overnight incubation, with each treatment condition performed in triplicate. After drug treatment, 10 μl of 5 mg/ml MTT (3-(4,5-dimethylthiazolyl-2)-2, 5-diphenyltetrazolium bromide) in PBS was added to cells and allowed to incubate for 2–4 hours at 37°C. […] Plate absorbance was read at 595 nm using a Bio-rad microplate reader. Percent viability was calculated by normalizing absorbance values to those from cells grown in media without drug after background subtraction. IC50 values were calculated by fitting dose-response curves to a four-parameter, variable slope sigmoid dose-response model (Prism Software, GraphPad).

[6] = system: phospho-4E-BP1 (T37/46); assay: Immunoblot of signaling downstream of mTORC1; format: cell-based
Description: (§1) Cells were incubated for approximately one hour on ice in lysis buffer (50 mM Tris pH 7.6, 0.5% NP-40, 10% glycerol, 30 mM NaCl, 1 mM EDTA) supplemented with Complete Mini EDTA-free protease inhibitor cocktail (Roche), 1 mM Na3VO4, and 1 mM NaF. […] Secondary antibodies conjugated to HRP were sheep anti-mouse IgG from GE Healthcare and goat anti-rabbit IgG from Santa Cruz Biotechnology. Secondary antibodies conjugated to infrared dyes were IRDye 800CW goat anti-mouse IgG and IRDye 680RD goat anti-rabbit IgG from LI-COR Biosciences. Fluorescent westerns were imaged using the Odyssey Infrared Imaging System (LI-COR Biosciences). Signals were quantified by measuring the integrated intensity values of each band using Odyssey software (LI-COR Biosciences).
(§2) We next evaluated the ability of buparlisib to inhibit cellular signaling downstream of PI3K. Increasing doses were added to cells and phosphorylation of signaling molecules was examined by immunoblot after one hour of treatment (Fig 2A). […] Phospho-Akt levels were normalized to levels of total Akt and fit to dose-response curves to calculate the half maximal inhibitory concentration (IC50) (Fig 2B).
(§3) Each data point represents the average of at least three independent experiments.

[7] = system: phospho-p70 S6K (T389); assay: Immunoblot of signaling downstream of mTORC1; format: cell-based; conditions: increasing doses; one hour; compared with 4E-BP1
Description: as §1, §2, §3

[8] = system: PI3K; parameters: method as in PMID 22188813; conditions: cited from earlier work
[9] = system: HOS; assay: Cell viability assay (MTT), 72 h; format: cell-based; conditions: Homo sapiens, HOS (OS), PIK3CA WT, read-out: Buparlisib cell viability IC50
[10] = system: OS 187; assay: Cell viability assay (MTT), 72 h; format: cell-based; conditions: OS 187 (OS), read-out: Buparlisib cell viability IC50
[11] = system: A204; assay: Cell viability assay (MTT), 72 h; format: cell-based; conditions: Homo sapiens, A204 (RMS), PIK3CA WT, read-out: Buparlisib cell viability IC50
[12] = system: KHOS; assay: Cell viability assay (MTT), 72 h; format: cell-based; conditions: KHOS (OS), PIK3CA WT, read-out: Buparlisib cell viability IC50
[13] = system: 6647; assay: Cell viability assay (MTT), 72 h; format: cell-based; conditions: 6647 (ES), PIK3CA WT, read-out: Buparlisib cell viability IC50
[14] = system: HT161; assay: Cell viability assay (MTT), 72 h; format: cell-based; conditions: HT161 (OS), PIK3CA WT, read-out: Buparlisib cell viability IC50
[15] = system: KHOS 240S; assay: Cell viability assay (MTT), 72 h; format: cell-based; conditions: KHOS 240S (OS), read-out: Buparlisib cell viability IC50
[16] = system: phospho-Akt (S473); assay: Immunoblot (quantitative) of Akt phosphorylation; format: cell-based
[17] = system: MNNG; assay: Cell viability assay (MTT), 72 h; format: cell-based; conditions: MNNG (OS), read-out: Buparlisib cell viability IC50

Nc1cc(C(F)(F)F)c(-c2cc(N3CCOCC3)nc(N3CCOCC3)n2)cn1 [Buparlisib]
pIC50 ([1]; ES and RMS cell lines in general, 72 h, read-out: cell viability IC50): ~6.00 | concentrations at which synergistic effects were observed ([1]; buparlisib concentration in combination therapy): under 1 μM | combination effect on cell viability ([1]; combined with rapamycin, four cell lines (TC-32, A673, RD, A4573), 72 h): Synergy | combination effect on cell viability ([1]; combined with trametinib, cell lines with (A673, RD) and without (TC-32, A4573) MAPK pathway mutations, 72 h): Synergistic effects were only observed in cell lines that contained MAPK pathway mutations | combination effect on cell viability ([1]; in combination with NVP-AEW541, ES and RMS cell lines, 72 h): Synergy | combination effect on cell viability ([1]; in combination with NVP-AEW541, OS cell lines (MNNG), 72 h): additive effects | pIC50 ([1]; median over sarcoma cell lines, 72 h, read-out: median IC50 value, cellular proliferation): 5.96 | combination effect on cell viability ([1]; sequential treatment doxorubicin (4 h) then buparlisib (72 h), ratio 20:3, ES and OS cell lines): additive | concentrations at which no soft agar colony formation occurred [2]: greater than 2 μM | concentrations with minimal effects on soft agar colony formation [2]: less than 1 μM | pIC50 [3]: 6.09 | pIC50 [4]: 5.80 | pIC50 ([5]; Homo sapiens, MCF7, 72 h): 6.76 | pIC50 [5]: 6.76 | Inhibition of phospho-4E-BP1 ([6]; increasing doses, one hour): only observed at high buparlisib concentrations | phosphorylation of 4E-BP1 ([6]; treatment with both buparlisib and rapamycin, A4573 cells): more potently suppressed | Phosphorylation of S6K [7]: more potently inhibited | specificity to PI3K versus other protein kinases [8]: at least 50 fold | pIC50 [9]: 5.73 | pIC50 [10]: 5.81 | pIC50 [11]: 6.28 | pIC50 [12]: 5.80 | pIC50 [13]: 5.99 | pIC50 [14]: 5.97 | pIC50 [15]: 5.93 | phospho-Akt levels compared to each drug alone ([16]; combination with NVP-AEW541, A4573 cells, one hour of treatment): reduced phospho-Akt levels | time to maximum inhibition of Akt ([16]; time course 5 min to 24 h, 1 μM (3 μM in A4573)): approximately one | pIC50 [17]: 5.80
